The test system of this series is leptocheirus plumolosus. Kind of series: Aquatic toxicity, EPA Test No. 1644, percent survival after 10 days of exposure. The class given is in vivo. The method, then: The aquatic toxicity of three cyclohexyl esters were tested against three comparative compounds. Aqueous samples of the following solvents were prepared at concentrations of 3200 mg/kg: xylene (Sample 2A); methyl 9-dodecenoate (Sample 2B); methyl esters of a mixture of C13-15 olefinic acids (Sample 2C); cyclohexyl 9-decenoate (Sample 2D); cyclohexyl 9-dodecenoate (Sample 2E); and cyclohexyl esters of a mixture of C13-15 olefinic acids. Using United States Environmental Protection Agency (EPA) Test No. 1644, the toxicity of the aqueous compositions was measured as the percent survival of leptocheirus plumolosus after 10 days of exposure. Table 1 recites the survival rates for each of the above compositions.

Setting [1] is: Leptocheirus plumolosus, in vivo, 3200 mg/kg, 10 days.

We go through four molecules from patent publication US10358409B2, “Low-toxicity olefinic ester compositions and methods of using the same” (Elevance Renewable Sciences, Inc., priority 2014, dated 2019).

For the molecule `CCC=CCCCCCCCC(=O)OC1CCCCC1` [Sample 2E, cyclohexyl 9-dodecenoate], the “Survival Rate (%)” value under setting [1] was 89%. Same read-out and setting: then `C=CCCCCCCCC(=O)OC1CCCCC1` [Sample 2D, cyclohexyl 9-decenoate], with 57%. With xylene [Sample 2A], the “Survival Rate (%)” value (aqueous samples of the solvent at 3200 mg/kg, percent survival of leptocheirus plumolosus after 10 days of exposure) is reported as 69%.

Turning to `CCC=CCCCCCCCC(=O)OC` [Sample 2B, methyl 9-dodecenoate], the “Survival Rate (%)” value under setting [1] came to 47%.
